Assay results taken from publication PMC6277198, “Molecular basis for activation of lecithin:cholesterol acyltransferase by a compound that increases HDL cholesterol” (eLife, 2018).
Changes are numbered by the printed parent chain. Entries after “also recorded” stand apart in the source; their conditions may differ.

How the values were obtained:
LCAT G71I = target: T1, LCAT G71I (Homo sapiens, UniProt P04180, G95I); assay: MUP hydrolysis (esterase) assay; format: biochemical; details: compound titrated from 0.04 to 9.5 μM
T1 construct: hydrolysis of 4-methylumbelliferyl palmitate (MUP) by full-length LCAT; made in house; host or cells: HEK293F (transient transfection, secreted)
T1 sequence (P04180 25-440 G95I): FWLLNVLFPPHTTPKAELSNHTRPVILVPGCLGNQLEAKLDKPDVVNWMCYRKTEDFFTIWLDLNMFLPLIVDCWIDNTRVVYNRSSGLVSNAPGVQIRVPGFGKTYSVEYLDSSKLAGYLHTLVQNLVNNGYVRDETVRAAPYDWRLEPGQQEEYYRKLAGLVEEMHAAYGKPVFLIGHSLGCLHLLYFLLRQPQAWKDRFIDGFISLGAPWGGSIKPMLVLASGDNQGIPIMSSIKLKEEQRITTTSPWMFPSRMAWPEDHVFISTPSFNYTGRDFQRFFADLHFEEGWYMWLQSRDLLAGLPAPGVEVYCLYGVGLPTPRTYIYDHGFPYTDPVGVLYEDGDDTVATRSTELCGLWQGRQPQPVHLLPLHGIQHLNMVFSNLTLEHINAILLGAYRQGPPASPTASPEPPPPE
Description: (§1) The lipase activity of LCAT was measured using MUP as a substrate. The assay was performed at room temperature in 0.1 M sodium phosphate buffer, pH 7.4 containing 0.01% Triton X-100. 4 μL of LCAT (6 nM final concentration) were dispensed into a 1536-well Greiner solid black plate. The same volume of assay buffer was dispensed into column 1 and 2 for a no-enzyme control. […] After 15 min incubation, 2 μL MUP (16 μM final concentration) was added to initiate the reaction. The hydrolysis of MUP was monitored using a ViewLux plate reader (excitation 380 nm/emission 450 nm) for 20 min. The fluorescence signal was normalized against no-activator and no-enzyme control after subtraction of background signal (t = 0 min). To plot percent activation, in each assay 100% was set at the rate of LCAT or LCAT variant without compound. The resulting data were fitted to a sigmoidal dose response curve.

LCAT Y51S = target: T2, LCAT Y51S (Homo sapiens, UniProt P04180, Y75S); assay: MUP hydrolysis (esterase) assay; format: biochemical
T2 construct: hydrolysis of 4-methylumbelliferyl palmitate (MUP) by full-length LCAT; made in house; host or cells: HEK293F (transient transfection, secreted)
T2 sequence (P04180 25-440 Y75S): T1 sequence (P04180 25-440 G95I) with Y51S, I71G
Description: as §1

LCAT Y51S/G71I = target: T3, LCAT Y51S/G71I (Homo sapiens, UniProt P04180, G95I/Y75S); assay: MUP hydrolysis (esterase) assay; format: biochemical; details: compound titrated from 0.04 to 9.5 μM
T3 construct: hydrolysis of 4-methylumbelliferyl palmitate (MUP) by full-length LCAT; made in house; host or cells: HEK293F (transient transfection, secreted)
T3 sequence (P04180 25-440 Y75S/G95I): T1 sequence (P04180 25-440 G95I) with Y51S
Description: as §1

∆N∆C-LCAT = target: T4, ∆N∆C-LCAT (Homo sapiens, UniProt P04180); assay: Differential scanning fluorimetry; format: binding; details: for Thermal stabilization (DSF): ∆N∆C LCAT
T4 construct: ∆N∆C-LCAT (residues 21–397), a truncation variant that lacks the dynamic N- and C-termini; made in house; host or cells: HEK293F
T4 sequence (P04180 45-421): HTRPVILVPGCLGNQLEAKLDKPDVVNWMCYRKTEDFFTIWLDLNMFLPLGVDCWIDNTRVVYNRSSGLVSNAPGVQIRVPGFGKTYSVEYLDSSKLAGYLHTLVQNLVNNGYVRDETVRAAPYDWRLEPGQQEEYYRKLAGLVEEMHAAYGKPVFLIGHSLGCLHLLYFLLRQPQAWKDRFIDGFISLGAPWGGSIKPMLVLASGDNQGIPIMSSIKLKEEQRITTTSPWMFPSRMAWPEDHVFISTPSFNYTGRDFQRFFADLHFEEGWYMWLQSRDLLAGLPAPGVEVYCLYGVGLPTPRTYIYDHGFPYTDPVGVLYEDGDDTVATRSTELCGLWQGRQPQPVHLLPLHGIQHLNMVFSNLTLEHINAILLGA
Description: (§2) Tm values were determined using an Applied Biosystems QuantStudio 7 Flex qPCR machine with two replicates performed at least in triplicate. LCAT at 0.05 mg mL^−1 was diluted into reaction buffer containing 5X Sypro Orange in a final volume of 10 μL in 384-well PCR plates. DMSO or compound 1 was added so that all reactions contained 3% DMSO. The reactions were run from 25–95 °C with a ramp rate of 0.03 °C s^−1. Tm values were determined as the derivative using Protein Thermal Shift software. Significance was determined using a one-way analysis of variance followed by Tukey’s multiple comparisons post-test in GraphPad Prism.

∆N∆C-IDFP LCAT = target: T5, ∆N∆C-IDFP LCAT (Homo sapiens, UniProt P04180); assay: Differential scanning fluorimetry; format: binding
T5 construct: ∆N∆C-LCAT (residues 21–397), a truncation variant that lacks the dynamic N- and C-termini; made in house; host or cells: HEK293F
T5 sequence (P04180 45-421): T4 sequence (P04180 45-421)
Description: as §2

[1] = Y51S, compound titrated from 0.04 to 9.5 μM

| Compound | EC50 (LCAT G71I) | Fold activation, MUP esterase assay (LCAT G71I) | EC50 (LCAT Y51S; [1]) | Fold activation, MUP esterase assay (LCAT Y51S; [1]) | MUP EC50 of Y51S relative to WT (LCAT Y51S; fold higher than WT) | Fold activation, MUP esterase assay (LCAT Y51S/G71I) | MUP assay EC50 (LCAT Y51S/G71I) | ∆Tm of ∆N∆C-LCAT (∆N∆C-LCAT; compound 1 and IDFP combined, additive effect) | Thermal stabilization (DSF) (∆N∆C-LCAT) | Thermal stabilization (DSF) (∆N∆C-IDFP LCAT) | MUP assay EC50 (LCAT G71I) | MUP assay EC50 (LCAT Y51S; [1]) | EC50 (LCAT Y51S/G71I) |
| --- | --- | --- | --- | --- | --- | --- | --- | --- | --- | --- | --- | --- | --- |
| O=C1CC(O)(C(F)(F)F)c2c(ncn2C2CCN(c3cnc(C(F)(F)F)cn3)CC2)N1 (centres unmarked) [compound 3, 7-Hydroxy-7-(trifluoromethyl)−1-(1-(5-(trifluoromethyl)pyrazin-2-yl)piperidin-4-yl)−6,7-dihydro-1H-imidazo[4,5-b]pyridin-5(4H)-one] | > 5 µM | 1.5 ± 0.2 fold | 1.6 ± 0.4 µM | 1.9 ± 0.2 fold | – | 1.1 ± 0.06 fold | no effect | – | stabilize | stabilize | – | – | – |
| O=C1CC(O)(C(F)(F)F)c2c(ncn2C2CCNCC2)N1 (centres unmarked) [compound 6, 7-Hydroxy-1-(piperidin-4-yl)−7-(trifluoromethyl)−6,7-dihydro-1H-imidazo[4,5-b]pyridin-5(4H)-one] | – | no effect | – | no effect | – | no effect | no effect | – | – | – | no effect | no effect | – |
| O=c1cc(C(F)(F)F)c2c(ncn2C2CCN(c3cnc(C(F)(F)F)cn3)CC2)[nH]1 [compound 8, 7-(trifluoromethyl)−1-(1-(5-(trifluoromethyl)pyrazin-2-yl)piperidin-4-yl)−1H-imidazo[4,5-b]pyridin-5(4H)-one] | > 10 µM | 1.2 ± 0.1 fold | > 10 µM | 2.8 ± 0.6 fold | – | 1.1 ± 0.07 fold | – | – | – | – | – | – | > 10 µM |
| O=C1CC(O)(C(F)(F)F)c2c(C3CCN(c4cnc(C(F)(F)F)cn4)CC3)noc2N1 (centres unmarked) [compound 9, 4-hydroxy-4-(trifluoromethyl)−3-(1-(5-(trifluoromethyl)pyrazin-2-yl)piperidin-4-yl)−4,5-dihydroisoxazolo[5,4-b]pyridin-6(7H)-one] | – | 0.96 ± 0.01 fold | > 10 µM | 1.1 ± 0.07 fold | – | 0.97 ± 0.003 fold | no effect | – | – | – | no effect | – | – |

Continued, values first:

| EC50 (LCAT G71I) | Fold activation, MUP esterase assay (LCAT G71I) | EC50 (LCAT Y51S; [1]) | Fold activation, MUP esterase assay (LCAT Y51S; [1]) | MUP EC50 of Y51S relative to WT (LCAT Y51S; fold higher than WT) | Fold activation, MUP esterase assay (LCAT Y51S/G71I) | MUP assay EC50 (LCAT Y51S/G71I) | ∆Tm of ∆N∆C-LCAT (∆N∆C-LCAT; compound 1 and IDFP combined, additive effect) | Thermal stabilization (DSF) (∆N∆C-LCAT) | Thermal stabilization (DSF) (∆N∆C-IDFP LCAT) | MUP assay EC50 (LCAT G71I) | MUP assay EC50 (LCAT Y51S; [1]) | EC50 (LCAT Y51S/G71I) | Compound |
| --- | --- | --- | --- | --- | --- | --- | --- | --- | --- | --- | --- | --- | --- |
| > 5 µM | 1.5 ± 0.4 fold | 0.59 ± 0.03 µM | 1.9 ± 0.2 fold | 4 fold | 1.3 ± 0.3 fold | no response; also recorded: no effect | 12.7 ˚C | stabilize | stabilize | – | – | – | N#Cc1cnc(N2CCC(c3n[nH]c4c3C(O)(C(F)(F)F)CC(=O)N4)CC2)cc1C(F)(F)F (centres unmarked) [compound 1, 6-(4-(4-Hydroxy-6-oxo-4-(trifluoromethyl)−4,5,6,7-tetrahydro-1H-pyrazolo[3,4-b]pyridin-3-yl)piperidin-1-yl)−4-(trifluoromethyl)nicotinonitrile] |
| > 5 µM | 1.7 ± 0.2 fold | 0.74 ± 0.2 µM | 1.8 ± 0.1 fold | – | 0.99 ± 0.03 fold | no effect | – | stabilize | stabilize | – | – | – | O=C1CC(O)(C(F)(F)F)c2c(C3CCN(c4cnc(C(F)(F)F)cn4)CC3)n[nH]c2N1 (centres unmarked) [compound 2, 4-Hydroxy-4-(trifluoromethyl)−3-(1-(5-(trifluoromethyl)pyrazin-2-yl)piperidin-4-yl)−4,5-dihydro-1H-pyrazolo[3,4-b]pyridin-6(7H)-one] |
